According to US20150105429A1, “BENZYL SULFONAMIDE DERIVATIVES AS RORC MODULATORS” (Genentech, Inc., priority 2011, published 2015):

target: T1, RORc ligand binding domain (Homo sapiens, UniProt P51449); experiment: In Vitro RORc Ligand Binding Assay; conditions: radioligand 25-[3H]hydroxycholesterol 6 nM; 0.6 ug/mL RORc receptor; 3 h at 25° C.; read-out: IC50 values (micromolar) for RORc affinity
T1 construct: host or cells: E. coli
T1 sequence (P51449 269-508 limits assumed): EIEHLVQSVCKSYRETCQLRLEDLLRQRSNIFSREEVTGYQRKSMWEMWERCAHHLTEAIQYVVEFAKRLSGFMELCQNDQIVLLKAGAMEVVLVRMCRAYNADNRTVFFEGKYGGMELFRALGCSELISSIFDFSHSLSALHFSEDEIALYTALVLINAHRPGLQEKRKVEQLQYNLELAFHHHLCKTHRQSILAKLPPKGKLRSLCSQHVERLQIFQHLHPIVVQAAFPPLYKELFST
Procedure: This assay was used to determine a compound's potency in inhibiting activity of RORc by determining, Kiapp, IC50, or percent inhibition values.
On day of the assay, 100 uL of 0.05% CHAPS (in deionized H2O) was added to all wells of the GFB Unifilter plate and allowed soak for 1 h. A wash buffer of 50 mM HEPES (pH 7.4), 150 mM NaCl, and 5 mM MgCl2 was prepared to wash the filter plate. To prepare an assay buffer, BSA was added to the wash buffer to reach 0.01% and DTT was added to reach 1 mM.
The 20× compound stocks were diluted in DMSO with Assay Buffer 4-fold to reach 5× the final test concentration in 25% DMSO (10 uL compound+30 uL Assay Buffer). Solutions were mixed by aspiration several times with a pipette set on 50 uL volume. For the assay, 10 uL of 5× compound stock solutions in 25% DMSO were added to the assay plate in duplicate.
For two point screening, 10 mM stock compound solutions were diluted in DMSO to obtain 200 uM (20× the high test concentration) and then diluted 10-fold further to reach 20 uM (20× the low test concentration). The 20× stocks were diluted 4-fold with Assay Buffer (10 uL compound+30 uL Assay Buffer) to reach 5× the test concentrations (50 uM and 5 uM) and 10 uL were added to two assay plates for the duplicate wells. With each concentration tested on 2 plates, each set of 80 compounds used 4 assay plates (1 uM and 10 uM, with n=2).
For 25-hydroxycholesterol in 25% DMSO/75% Assay Buffer; 10 uL per well was used for NSB samples. Wells for Total Binding and No Receptor sample determination contained 10 uL of 25% DMSO/75% Assay Buffer per well.
Radioligand (25-[^3H]hydroxycholesterol) Preparation
Added 20 uL to all wells to reach 6 nM final in the assay.
Stock receptor solution was diluted in assay buffer to obtain 1.5 ug/mL in Assay Buffer. 20 uL was added to all wells. For No R samples, 20 uL Assay Buffer was substituted for receptor solution.
Assay plates were 96-well polypropylene V-bottom plates. 10 uL of 5× compound in 25% DMSO/75% Assay Buffer was added to Test wells. 10 uL of 25% DMSO/75% Assay Buffer was added to Total Binding or No Receptor wells. 10 uL of 5 uM 25-hydroxycholesterol in 25% DMSO/75% Assay Buffer was added to NSB wells. […] 20 uL of 1.5 ug/mL RORc receptor was added to wells (or 40 uL Assay Buffer to No R wells). Following addition to the wells, the plates were incubated 3 h at 25° C.
Using a Packard Filtermate Harvester, the filter plates were washed 4 times following transfer of the incubated samples. Plates were dry-filtered completely (2 h at 50° C. or overnight at room temperature). 50 uL Microscint 0 was added to all wells and read on Topcount protocol Inverted.
Final concentrations were as follows: 50 mM HEPES buffer (pH 7.4); 150 mM NaCl; 1 mM DTT; 5 mM MgCl2; 0.01% BSA; 5% DMSO; 0.6 ug/mL RORc receptor; 6 nM 25-[^3H]hydroxycholesterol. For NSB wells, 1 uM 25-hydroxycholesterol was also present.

Row | SMILES | IC50 [µM]
1 | CC(C)CN(Cc1ccc(-c2ccc(C(=O)N(C)C)cc2)cc1)S(=O)(=O)Cc1ccccc1 [Compound 5, 4′-[(Isobutyl-phenylmethanesulfonyl-amino)-methyl]-biphenyl-4-carboxylic acid dimethylamide] | 0.963
2 | CC(C)CN(Cc1ccc(-c2cccc(S(C)(=O)=O)c2)s1)S(=O)(=O)Cc1ccccc1F [Compound 29, C-(2-Fluoro-phenyl)-N-isobutyl-N-[5-(3-methanesulfonyl-phenyl)-thiophen-2-ylmethyl]-methanesulfonamide] | 1.5
3 | CC(C)CN(Cc1ccc(-c2cccc(C(=O)N(C)C)c2)s1)S(=O)(=O)Cc1ccccc1 [Compound 43, 3-{5-[(Isobutyl-phenylmethanesulfonyl-amino)-methyl]-thiophen-2-yl}-N,N-dimethyl-benzamide] | 2.4
4 | Cc1nn(C)c(C)c1S(=O)(=O)N(Cc1ccc(-c2cccc(S(C)(=O)=O)c2)s1)CC(C)C [Compound 61, 1,3,5-Trimethyl-1H-pyrazole-4-sulfonic acid isobutyl-[5-(3-methanesulfonyl-phenyl)-thiophen-2-ylmethyl]-amide] | 3.6
5 | CC(=O)Nc1ccc(-c2ccc(CN(CC(C)C)S(=O)(=O)Cc3ccccc3)s2)cn1 [Compound 52, N-(5-{5-[(Isobutyl-phenylmethanesulfonyl-amino)-methyl]-thiophen-2-yl}-pyridin-2-yl)-acetamide] | 3
6 | CC(C)CN(Cc1ccc(-c2cncc(S(C)(=O)=O)c2)s1)S(=O)(=O)Cc1ccccc1 [Compound 44, N-Isobutyl-N-[5-(5-methanesulfonyl-pyridin-3-yl)-thiophen-2-ylmethyl]-C-phenyl-methanesulfonamide] | 2.5
7 | CC(C)CN(Cc1ccc(-c2cccc(S(C)(=O)=O)c2)s1)S(=O)(=O)c1cccc(C#N)c1 [Compound 33, 3-Cyano-N-isobutyl-N-[5-(3-methanesulfonyl-phenyl)-thiophen-2-ylmethyl]-benzenesulfonamide] | 2.4
8 | CC(C)CN(Cc1ccc(-c2cccc(S(C)(=O)=O)c2)s1)S(=O)(=O)c1cccnc1 [Compound 62, Pyridine-3-sulfonic acid isobutyl-[5-(3-methanesulfonyl-phenyl)-thiophen-2-ylmethyl]-amide] | 4.2
9 | CC(C)CN(Cc1cccc(-c2cccc(S(C)(=O)=O)c2)c1)S(=O)(=O)Cc1ccccc1 [Compound 67, N-isobutyl-N-((3′-(methylsulfonyl)-[1,1′-biphenyl]-3-yl)methyl)-1-phenylmethanesulfonamide] | 3
10 | COCCN(Cc1ccc(-c2ccc(S(C)(=O)=O)cc2)s1)S(=O)(=O)Cc1ccccc1 [Compound 57, N-[5-(4-Methanesulfonyl-phenyl)-thiophen-2-ylmethyl]-N-(2-methoxy-ethyl)-C-phenyl-methanesulfonamide] | 5.1
11 | CS(=O)(=O)c1cccc(-c2ccc(CN(Cc3ccc(F)cc3Cl)S(=O)(=O)Cc3ccccc3)cc2)c1 [Compound 2, N-(2-Chloro-4-fluoro-benzyl)-N-(3′-methanesulfonyl-biphenyl-4-ylmethyl)-C-phenyl-methanesulfonamide] | 2.8
12 | CC(C)CN(Cc1ccc(-c2cccc(C(N)=O)c2)s1)S(=O)(=O)Cc1ccccc1 [Compound 41, 3-{5-[(Isobutyl-phenylmethanesulfonyl-amino)-methyl]-thiophen-2-yl}-benzamide] | 1.4
13 | Cc1n[nH]c(C)c1-c1ccc(CN(CC(C)C)S(=O)(=O)Cc2ccccc2)cc1 [Compound 10, N-[4-(3,5-Dimethyl-1H-pyrazol-4-yl)-benzyl]-N-isobutyl-C-phenyl-methanesulfonamide] | 2.8
14 | CC(C)CN([C@H](C)c1ccc(-c2ccc(S(C)(=O)=O)cc2)cc1)S(=O)(=O)Cc1ccccc1 [Compound 21, N-Isobutyl-N-[(R)-1-(4′-methanesulfonyl-biphenyl-4-yl)-ethyl]-C-phenyl-methanesulfonamide] | 2.9

The next compounds have a lower IC50 than those just listed; values first:

Row | IC50 [µM] | SMILES
15 | 0.691 | CC(C)CN([C@@H](C)c1ccc(-c2cccc(S(C)(=O)=O)c2)cc1)S(=O)(=O)Cc1ccccc1 [Compound 19, N-Isobutyl-N-[(S)-1-(3′-methanesulfonyl-biphenyl-4-yl)-ethyl]-C-phenyl-methanesulfonamide]
16 | 0.32 | CC(C)CN(Cc1csc(-c2ccc(S(C)(=O)=O)cc2)c1)S(=O)(=O)Cc1ccccc1 [Compound 68, N-isobutyl-N-((5-(4-(methylsulfonyl)phenyl)thiophen-3-yl)methyl)-1-phenylmethanesulfonamide]
17 | 0.476 | CC(C)CN(Cc1ccc(-c2cccc(S(C)(=O)=O)c2)s1)S(=O)(=O)c1ccccc1 [Compound 28, N-Isobutyl-N-[5-(3-methanesulfonyl-phenyl)-thiophen-2-ylmethyl]-benzenesulfonamide]
18 | 0.188 | CC(C)CN(Cc1ccc(-c2cccc(S(C)(=O)=O)c2)s1)S(=O)(=O)c1cccc(Cl)c1 [Compound 26, 3-Chloro-N-isobutyl-N-[5-(3-methanesulfonyl-phenyl)-thiophen-2-ylmethyl]-benzenesulfonamide]
19 | 0.195 | CC(C)N(Cc1ccc(-c2ccc(S(C)(=O)=O)cc2)s1)S(=O)(=O)Cc1ccccc1 [Compound 56, N-Isopropyl-N-[5-(4-methanesulfonyl-phenyl)-thiophen-2-ylmethyl]-C-phenyl-methanesulfonamide]
20 | 0.154 | CC(C)CN([C@@H](C)c1ccc(-c2ccc(C(N)=O)cc2)cc1)S(=O)(=O)Cc1ccccc1 [Compound 17, 4′-[(S)-1-(Isobutyl-phenylmethanesulfonyl-amino)-ethyl]-biphenyl-4-carboxylic acid amide]
21 | 0.614 | CC(C)CN(Cc1ccc(-c2ccncc2)s1)S(=O)(=O)Cc1ccccc1 [Compound 38, N-Isobutyl-C-phenyl-N-(5-pyridin-4-yl-thiophen-2-ylmethyl)-methanesulfonamide]
22 | 0.598 | CCn1cc(-c2ccc(CN(CC(C)C)S(=O)(=O)Cc3ccccc3)s2)cn1 [Compound 36, N-[5-(1-Ethyl-1H-pyrazol-4-yl)-thiophen-2-ylmethyl]-N-isobutyl-C-phenyl-methanesulfonamide]
23 | 0.011 | Cc1cc(CN(CC(C)C)S(=O)(=O)Cc2ccccc2)ccc1-c1ccc(S(C)(=O)=O)cc1 [Compound 24, N-Isobutyl-N-(4′-methanesulfonyl-2-methyl-biphenyl-4-ylmethyl)-C-phenyl-methanesulfonamide]
24 | 0.377 | Cc1n[nH]c(C)c1-c1ccc(CN(CC(C)C)S(=O)(=O)Cc2ccccc2)s1 [Compound 49, N-[5-(3,5-Dimethyl-1H-pyrazol-4-yl)-thiophen-2-ylmethyl]-N-isobutyl-C-phenyl-methanesulfonamide]
25 | 0.612 | CC(C)CN(Cc1ccc(-c2cnn(C)c2)s1)S(=O)(=O)Cc1ccccc1 [Compound 45, N-Isobutyl-N-[5-(1-methyl-1H-pyrazol-4-yl)-thiophen-2-ylmethyl]-C-phenyl-methanesulfonamide]
26 | 0.77 | CC(C)CN(Cc1ccc(-c2ccc(S(C)(=O)=O)cc2)nc1)S(=O)(=O)Cc1ccccc1 [Compound 66, N-isobutyl-N-((6-(4-(methylsulfonyl)phenyl)pyridin-3-yl)methyl)-1-phenylmethanesulfonamide]
27 | 0.278 | CC(C)CN(Cc1cc(-c2ccc(S(C)(=O)=O)cc2)cs1)S(=O)(=O)Cc1ccccc1 [Compound 59, N-Isobutyl-N-[4-(4-methanesulfonyl-phenyl)-thiophen-2-ylmethyl]-C-phenyl-methanesulfonamide]
28 | 0.365 | CC(C)CN(Cc1ccc(-c2cccc(S(C)(=O)=O)c2)cc1)S(=O)(=O)Cc1ccccc1 [Compound 1, N-Isobutyl-N-(3′-methanesulfonyl-biphenyl-4-ylmethyl)-C-phenyl-methanesulfonamide]
